Test results published in the supplement of paper PMC12137928.
Where a name gives a salt, the structure may show the parent alone.

Columns and labels:
HCT116 [1] = assay: efficacy (maximum % inhibition of viability vs DMSO); higher = more cytotoxic; details: 72 h
Procedure, shortened: (§1)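 HCT116 cells were seeded at 250 per well in 1536-well plates with 5 h allowed for attachment. CellTiter-Glo luminescence was normalized against vehicle (0%) and positive control (-100%) before pattern correction. The IC50 and maximal efficacy figures derive from four-parameter Hill fits.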

HCT116 [2] = details: 72 h
Procedure, shortened: as §1

Compound	efficacy (HCT116 [1]; ICRF193 0 nM) [%]	IC50 cell viability (HCT116 [2]; ICRF193 0 nM) [µM]	IC50 cell viability (HCT116 [2]; ICRF193 200 nM) [µM]	efficacy (HCT116 [1]; ICRF193 200 nM) [%]
O=c1c(-c2ccccc2)c1-c1ccccc1 [Diphenylcyclopropenone]	100	29.1	> 45.8	–
[O-][n+]1ccccc1SSc1cccc[n+]1[O-] [Dipyrithione]	83.9	1.42	1.27	74.7
CCN1\C(=C/C=C/C=C/c2sc3ccccc3[n+]2CC)Sc2ccccc21 [Dithiazanine chloride]	96.7	23.1	20.6	99
CC(CCc1ccc(O)cc1)NCCc1ccc(O)c(O)c1 (stereo unspecified) [Dobutamine]	–	> 45.8	23.1	83.3
CC(=O)O[C@@]12CO[C@@H]1C[C@H](O)[C@@]1(C)C(=O)[C@H](O)C3=C(C)[C@@H](OC(=O)[C@H](O)[C@@H](NC(=O)OC(C)(C)C)c4ccccc4)C[C@@](O)([C@@H](OC(=O)c4ccccc4)[C@H]21)C3(C)C [Docetaxel]	60.8	0.0103	0.0146	56.5
CCCCCCCCCCCC[N+](C)(C)CCOc1ccccc1 [Domiphen bromide]	101	10.3	8.2	90.4
Oc1ccc(CCNCCCCCCNCCc2ccccc2)cc1O [Dopexamine]	–	> 45.8	18.3	47.3
CN(C)CC/C=C1\c2ccccc2CSc2ccccc21 [Dosulepin hydrochloride]	67.8	20.6	29.1	69.1
COc1cc2nc(N3CCN(C(=O)C4COc5ccccc5O4)CC3)nc(N)c2cc1OC (stereo unspecified) [Doxazosin mesylate]	106	29.1	18.3	95.6
C=C1/C(=C\C=C2/CCC[C@]3(C)[C@@H]([C@H](C)/C=C/[C@H](C)C(C)C)CC[C@@H]23)C[C@@H](O)C[C@@H]1O [Doxercalciferol]	101	29.1	29.1	102
C[C@H]1c2cccc(O)c2C(=O)C2=C(O)[C@]3(O)C(=O)C(C(N)=O)=C(O)[C@@H](N(C)C)[C@@H]3[C@@H](O)[C@@H]21 [Doxycycline]	41.6	16.4	23.1	62.7
CCCCc1oc2ccc(NS(C)(=O)=O)cc2c1C(=O)c1ccc(OCCCN(CCCC)CCCC)cc1 [Dronedarone hydrochloride]	115	20.6	29.1	68.2
C[C@]12CCC(=O)C=C1[C@@H]1C[C@@H]1[C@H]1[C@@H]3[C@@H]4C[C@@H]4[C@@]4(CCC(=O)O4)[C@@]3(C)CC[C@@H]12 [Drospirenone]	51.3	18.3	23.1	49.1
CNCC[C@H](Oc1cccc2ccccc12)c1cccs1 [Duloxetine hydrochloride]	93	18.3	20.6	105
CC(=O)[C@H]1CC[C@H]2[C@@H]3C=CC4=CC(=O)CC[C@@]4(C)[C@@H]3CC[C@]12C [Dydrogesterone]	–	> 45.8	20.6	41.7
CC[C@H]1CN2CCc3cc(OC)c(OC)cc3[C@@H]2C[C@@H]1C[C@H]1NCCc2cc(OC)c(OC)cc21 [EMETINE DIHYDROCHLORIDE]	70.8	0.146	0.13	76.6
C=C1CC[C@H](O)C/C1=C/C=C1\CCC[C@]2(C)[C@@H]([C@H](C)/C=C/[C@H](C)C(C)C)CC[C@@H]12 [ERGOCALCIFEROL]	–	> 45.8	29.1	56.2
Cc1cc(-c2ccc(/N=N/c3ccc4c(S(=O)(=O)O)cc(S(=O)(=O)O)c(N)c4c3O)c(C)c2)ccc1/N=N/c1ccc2c(S(=O)(=O)O)cc(S(=O)(=O)O)c(N)c2c1O [EVANS BLUE]	95.6	18.3	18.3	87.8
CC(C)(C)c1ccc(C(=O)CCCN2CCC(OC(c3ccccc3)c3ccccc3)CC2)cc1 [Ebastine]	115	29.1	23.1	112
CC(C)c1cc2c(cc1S(=O)(=O)O)[C@@]1(C)CCC[C@@](C)(C(=O)O)[C@@H]1CC2 [Ecabet]	–	> 45.8	0.103	63.3
Clc1ccc(COC(Cn2ccnc2)c2ccc(Cl)cc2Cl)cc1 (stereo unspecified) [Econazole nitrate]	90.3	20.6	20.6	96
O=C1Nc2ccc(Cl)cc2[C@@](C#CC2CC2)(C(F)(F)F)O1 [Efavirenz]	56.7	20.6	25.9	44.6
CC1=C(C(=O)OCCN(Cc2ccccc2)c2ccccc2)C(c2cccc([N+](=O)[O-])c2)C(P2(=O)OCC(C)(C)CO2)=C(C)N1 (stereo unspecified) [Efonidipine hydrochloride monoethanolate]	41.1	16.4	> 45.8	–
CCCCCCCC(=O)N[C@H](CN1CCCC1)[C@H](O)c1ccc2c(c1)OCCO2 [Eliglustat (Tartrate)]	–	> 45.8	29.1	44.2
CC1=NN(c2ccc(C)c(C)c2)C(=O)/C1=N\Nc1cccc(-c2cccc(C(=O)O)c2)c1O [Eltrombopag olamine]	41.9	6.51	> 45.8	–
